Test results from publication PMC11908749 (Chemistry & Biodiversity, 2025).

What was measured:
Assay type in all cases: cell-based
[1] = test system: U‐251 (human glioblastoma cell line); assay: SRB cytotoxicity, U-251 cells; conditions: read-out: IC50 U‐251, non-linear regression
[2] = test system: MCF‐7 (human mammary adenocarcinoma); assay: SRB cytotoxicity, MCF-7 cells; conditions: read-out: IC50 MCF‐7, non-linear regression
[3] = test system: SK‐LU‐1 (human lung adenocarcinoma); assay: SRB cytotoxicity, SK-LU-1 cells; conditions: read-out: IC50 SK‐LU‐1, non-linear regression

curcumin
IC50 [1]: 20.5 ± 1.7 µM
IC50 [2]: 18.4 ± 0.9 µM
IC50 [3]: 12.9 ± 0.7 µM
